# Source: ChEMBL document CHEMBL1127946, “The squalestatins: Potent inhibitors of squalene synthase, 3-hydroxymethyl derivatives” (Bioorg Med Chem Lett, 1994)
# Molecular target: T1, Squalene synthase (Rattus norvegicus, UniProt Q02769)
# T1 sequence (Q02769 whole entry): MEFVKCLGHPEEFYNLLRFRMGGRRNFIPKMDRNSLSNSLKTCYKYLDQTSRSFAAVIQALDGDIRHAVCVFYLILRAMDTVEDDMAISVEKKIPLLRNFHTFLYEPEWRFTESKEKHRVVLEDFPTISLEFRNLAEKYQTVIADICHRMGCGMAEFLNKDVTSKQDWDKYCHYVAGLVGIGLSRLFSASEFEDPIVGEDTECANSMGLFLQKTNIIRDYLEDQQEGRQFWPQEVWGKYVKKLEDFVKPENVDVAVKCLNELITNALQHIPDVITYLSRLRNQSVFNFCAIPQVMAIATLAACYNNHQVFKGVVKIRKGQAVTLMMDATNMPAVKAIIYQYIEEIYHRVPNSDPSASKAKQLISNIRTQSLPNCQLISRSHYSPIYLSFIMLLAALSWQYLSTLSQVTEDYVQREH
# Assay: In vitro inhibition of rat squalene synthase
row,SMILES,IC50
1,C=C(CC[C@]12O[C@H](CO)[C@@](O)(C(=O)O)[C@](C(=O)O)(O1)[C@H](O)[C@H]2O)[C@@H](OC(C)=O)[C@H](C)Cc1ccccc1,395 nM
2,C=C(CC[C@]12O[C@H](CO)[C@@](O)(C(=O)O)[C@](C(=O)O)(O1)[C@H](OC(=O)CCC(C)C)[C@H]2O)[C@@H](OC(C)=O)[C@H](C)Cc1ccccc1,119 nM
3,C=C(CC[C@]12O[C@H](CO)[C@@](O)(C(=O)O)[C@](C(=O)O)(O1)[C@H](OC(=O)CC[C@@H](C)C[C@@H](C)CC)[C@H]2O)[C@@H](O)[C@H](C)Cc1ccccc1,22 nM
4,C=C(CC[C@]12O[C@H](CO)[C@@](O)(C(=O)O)[C@](C(=O)O)(O1)[C@H](OC(=O)CC[C@@H](C)C[C@@H](C)CC)[C@H]2O)[C@@H](OC(C)=O)[C@H](C)Cc1ccccc1,44 nM
5,C=C(CC[C@]12OC[C@@](O)(C(=O)O)[C@](C(=O)O)(O1)[C@H](O)[C@H]2O)[C@@H](OC(C)=O)[C@H](C)Cc1ccccc1,25000 nM
6,C=C(CC[C@]12OC[C@@](O)(C(=O)O)[C@](C(=O)O)(O1)[C@H](OC(=O)/C=C/[C@@H](C)C[C@@H](C)CC)[C@H]2O)[C@@H](OC(C)=O)[C@H](C)Cc1ccccc1,23 nM
7,CC[C@H](C)C[C@H](C)CCC(=O)O[C@@H]1[C@@H](O)[C@@]2(CCC(=O)[C@@H](O)[C@H](C)Cc3ccccc3)O[C@H](CO)[C@@](O)(C(=O)O)[C@]1(C(=O)O)O2,740 nM
8,C=C(CC[C@]12O[C@H](CO)[C@@](O)(C(=O)O)[C@](C(=O)O)(O1)[C@H](OC(=O)/C=C/[C@@H](C)C[C@@H](C)CC)[C@H]2O)[C@@H](OC(C)=O)[C@H](C)Cc1ccccc1,15 nM
9,C=C(CC[C@]12O[C@H](CO)[C@@](O)(C(=O)O)[C@](C(=O)O)(O1)[C@H](OC(=O)/C=C/[C@@H](C)C[C@@H](C)CC)[C@H]2O)[C@@H](O)[C@H](C)Cc1ccccc1,21 nM
10,C=C(CC[C@]12O[C@H](CO)[C@@](O)(C(=O)O)[C@](C(=O)O)(O1)[C@H](OC(=O)CCCCCC)[C@H]2O)[C@@H](OC(C)=O)[C@H](C)Cc1ccccc1,245 nM
11,C=C(CC[C@]12O[C@H](CO)[C@@](O)(C(=O)O)[C@](C(=O)O)(O1)[C@H](OC(=O)CCCCCCCC)[C@H]2O)[C@@H](OC(C)=O)[C@H](C)Cc1ccccc1,140 nM
12,C=C(CC[C@]12O[C@H](CO)[C@@](O)(C(=O)OC)[C@](C(=O)O)(O1)[C@H](OC(=O)/C=C/[C@@H](C)C[C@@H](C)CC)[C@H]2O)[C@@H](OC(C)=O)[C@H](C)Cc1ccccc1,79 nM
13,C=C(CC[C@]12O[C@H](CO)[C@@](O)(C(=O)O)[C@](C(=O)O)(O1)[C@H](OC(=O)CCC)[C@H]2O)[C@@H](OC(C)=O)[C@H](C)Cc1ccccc1,800 nM
